# Measured values published in patent EP0497921B1, “METHOD FOR INHIBITING ENZYMATIC SYNTHESIS OF NUCLEIC ACIDS USING ISOPSORALENS” (ISAACS, Stephen T., priority 1989, dated 1991).
# Where two headings read alike, the source gives them in different places.
# What was measured:
# [1] = tested on: Hind-III restriction fragments of lambda DNA; test: Photobinding of BIODMIP to lambda DNA fragments; format: binding; conditions: 100 µg/ml plus 50 µg additional; two 30 minute irradiations at room temperature with the PTI device
# Experimental: BIODMIP (100 µg/ml) was irradiated for 30 minutes at room temperature with the PTI device in 500 µl of 1 x TE buffer with 2 µg of Hind-III restriction fragments of lambda DNA. After the first irradiation, the mixture was transferred to a new tube containing 50 µg additional BIODMIP and this was incubated at 37°C for one hour to dissolve the compound. This was followed by a second 30 minute irradiation at room temperature with the PTI device. It was observed that, under these conditions BIODMIP added to the DNA at a ratio of 1 covalently bound BIODMIP per 20 base pairs.
# [2] = tested on: DNA polymerase I from E. coli. B; conditions: cited from earlier work; for template activity lost by modified DNA: C.M. Ou et al., covalently modified DNA
# [3] = water; cited from earlier work
# human placental DNA = test: PCR amplification with unirradiated AMDMIP and DMSO co-solvent; format: biochemical; conditions: no AMDMIP, average of duplicates, 139,000 at 0% DMSO
# Experimental: In this example, the effect of DMSO on PCR amplification in the presence of high concentrations of sterilizing compound (AMDMIP) was investigated. Samples were prepared for PCR which contained 1 µg of human placental DNA either with or without (unirradiated) AMDMIP (200 µg/ml). The samples were amplified 30 cycles under standard PCR conditions in the presence of 0%, 1%, 5% or 10% DMSO. The reaction mix contained α-^32P-dCTP. Following amplification, the samples were analyzed by PAGE (data not shown).
# Taq I DNA polymerase = test: Primer extension on site-specific 71-mer monoadduct template; format: biochemical, Thermus aquaticus; conditions: 55°C; 0.5, 1.0, 5.0 mins; PAGE, autoradiography
# Experimental: In this experiment, monoadducted 71-mers (as well as unmodified 71-mers) were used in template-dependent enzymatic extension. AMIP, AMDMIP, and MIP 71-mer monoadducts were made as in Example 17. Extension was carried out as in Example 18 except that in this experiment, Taq I DNA polymerase, a thermostable DNA polymerase isolated from Thermus aquaticus (Stratagene, Inc., La Jolla, CA) was assessed for its ability to read past isopsoralens.
# The reaction mixture was in 80 µl total volume and comprised 1 x Taq buffer, 200 µM each of dNTP's, 0.05 units of Taq per µl of reaction volume; 1 x 10^-9 M in 71-mer MA; 1 x 10^-8 M in ^32P-labelled SK-39. Each reaction was set up with everything except Taq polymerase. The samples were initially heated to 95°C for 5 mins, then incubated at 55°C for 3 mins. The extension reaction was initiated by addition of Taq polymerase. At the indicated time points (0.5, 1.0, 5.0 mins), 20 µl of the reaction mix was removed to a tube containing 1 µl of 0.5 M EDTA to stop the reaction. All products were analyzed on a 20% polyacrylamide, 7 M urea gel followed by autoradiography.
# This experiment investigated whether blocking of Taq polymerase by monoadducts is complete or whether monoadducts can be bypassed by the enzyme. In order to view the process of bypass synthesis, it is necessary to cycle the extension reaction of the primer with the 71-mer templates. Cycling in this case consists of mixing the primer with the 71-mer template, adding Taq polymerase and appropriate reagents, extending, heating to induce strand separation, reannealing of the primer to the 71-mer template, extending again, and subsequent stand separation. This process can be repeated as necessary. During this process, only the complement of the 71-mer template is being synthesized. It is accumulating in a linear fashion with the number of thermal cycles (in contrast to PCR where both strands are being synthesized and accumulate geometrically).
# The templates and reaction conditions were as in Example 19 above except that three samples were used for each monoadduct and each sample was tested under different conditions: • Samples (1): one sample for each monoadduct was used to carry out extension at 55°C as in Example 43; • Samples (2): one sample for each monoadduct was used to carry out extension by the following series of steps: denaturing at 95°C; incubating for 30 seconds at 55°C; adding Taq polymerase for 3 minutes at 550C; cooling the reaction for 1 minute at 7°C; stopping the reaction with EDTA for one minute at 95°C: • Samples (3): one sample for each monoadduct was used to carry out extension by repeating the following series of steps nine times: denaturing at 95°C; incubating for 30 seconds at 55°C; adding Taq polymerase for 3 minutes at 55°C; cooling the reaction for 1 minute at 7°C. At the end, the reaction is stopped with EDTA for one minute at 95°C.
# To investigate this question further, a new 5-MIP monoadducted 71-mer was prepared by repurification of the HPLC purified 5-MIP monoadducted 15-mer by PAGE. In this way, more of the non-monoadducted 15-mer was removed prior to ligation. The purified 71-mer was then used as template in an extension experiment as described in Example 20. After 10 cycles, there was still evidence of extension product (Figure 34).
# Monoadducted 71-mer was constructed as described, but for HMT. Extension was carried out and analyzed as before on PAGE. […] Full length 71-mer is not made and a shorter strand corresponding to the position of the HMT adduct was made.
# [4] = Solubility of photoreactive compounds in 1 X TE (optical density of filtrate); format: physicochemical; conditions: nd = not detectable (solubility was less than 1 µg/ml)
# Experimental: The solubilities of AMIP, AMDMIP, DMIP, MIP and isopsoralen (IP) were determined experimentally according to the scheme set forth in Figure 5. To perform the solubility measurement, it was first necessary to establish known optical densities for a 1 µg/ml solution of each compound. These were determined by preparing either ethanolic or aqueous stocks of each compound at known concentrations in 1 x TE, then measuring the optical density of each solution. From this information, the absorption of a 1 µg/ml solution was computed. Alternatively, the extinction coefficient may be thus determined and used in the same fashion. In this manner, the following absorption data was collected:
# Following this step, undissolved compound was removed by filtration using a 0.2 u nylon-66 syringe filter (Arco LC13; Gelman). The concentration of the remaining soluble compound was then determined by measuring the optical density of the filtrate and computing the solubility from the known optical density of a 1 µg/ml solution of that compound. The solubility of the compounds was thus determined to be as follows: […]
# Taq polymerase = Taq polymerase (Thermus aquaticus, UniProt P19821); test: Primer extension on 71-mer after random addition of compound or addition of photoproduct; format: biochemical
# Chain of Taq polymerase (P19821 whole entry): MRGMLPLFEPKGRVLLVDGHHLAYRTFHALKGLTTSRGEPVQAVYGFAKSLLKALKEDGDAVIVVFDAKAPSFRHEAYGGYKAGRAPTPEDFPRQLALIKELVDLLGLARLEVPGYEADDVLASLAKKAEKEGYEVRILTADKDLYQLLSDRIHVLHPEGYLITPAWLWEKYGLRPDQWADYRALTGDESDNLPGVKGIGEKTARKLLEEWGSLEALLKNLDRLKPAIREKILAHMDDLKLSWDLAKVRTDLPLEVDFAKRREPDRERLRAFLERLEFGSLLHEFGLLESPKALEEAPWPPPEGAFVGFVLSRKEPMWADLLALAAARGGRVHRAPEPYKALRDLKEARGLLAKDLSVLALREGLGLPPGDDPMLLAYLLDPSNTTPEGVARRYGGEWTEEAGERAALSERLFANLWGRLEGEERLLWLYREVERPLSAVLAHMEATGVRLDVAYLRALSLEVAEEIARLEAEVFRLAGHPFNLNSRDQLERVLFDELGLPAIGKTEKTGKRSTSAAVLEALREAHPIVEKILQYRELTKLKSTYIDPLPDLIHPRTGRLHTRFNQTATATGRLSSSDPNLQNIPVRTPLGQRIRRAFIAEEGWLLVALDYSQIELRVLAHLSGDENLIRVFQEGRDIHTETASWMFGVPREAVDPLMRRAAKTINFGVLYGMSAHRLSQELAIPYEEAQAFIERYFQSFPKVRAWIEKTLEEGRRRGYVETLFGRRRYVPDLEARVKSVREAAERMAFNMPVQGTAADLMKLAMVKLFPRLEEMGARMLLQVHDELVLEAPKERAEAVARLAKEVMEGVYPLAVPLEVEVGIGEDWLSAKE
# Source text: In this experiment, the ability of AMIP, AMDMIP and MIP to block replication of 71-mer is investigated by randomly adding each compound to the 71-mer. of course, addition may only be random in the sense that one or more adducts may be formed with any one strand of nucleic acid. The actual placement of the isopsoralen may be governed by preferential binding at particular sites (e.g. A:T). In addition to blockage by random adducts, photoproducts of the various isopsoralens may be providing an inhibitory effect. No attempt to separate the effects of photoproduct from the effects of covalent adducts on the 71-mer template was made in this series of experiments.
# In these experiments, the 71-mer template (10^-9 M) was primed with ^32P-SK-39 (10^-8) and extended with Taq polymerase in a total volume of 20 µl. The dNTP concentration was 200 µM. In the control samples, the 71-mer, the primer, and the dNTPs were mixed in Taq buffer in a volume of 18 µl. These samples were initially denatured at 95°C for 5 minutes, followed by equilibration at 550C for 3 minutes. Taq enzyme was then added (0.5 units) and the extension reaction was carried out for 5 minutes at 55°C. The reaction was stopped by making the solution 10 mM in EDTA. In another set of samples, the 71-mer in 10 µl was mixed with either AMIP (200 µg/ml), AMDMIP (200 µg/ml), or MIP (60 µg/ml). Half of these samples were irradiated for 15 minutes on the CE-I device at 25°C. The other half was kept in the dark as controls. These samples were then mixed with the primer and dNTPs as before, and were subjected to the same thermal profile and extension reactions as the samples that were described earlier. The results were examined by PAGE. The extended product bands were identified by autoradiography, excised and counted (data not shown).
# In this experiment, the ability of two different Phenylazide derivatives (see Table 1), photobiotin (Vector Labs) and monoazide ethidium chloride, to block replication of 71-mer was investigated by randomly adding each compound to the 71-mer. Again, addition may only be random in the sense that one or more adducts may be formed with any one strand of nucleic acid. The actual placement of these compounds may be governed by preferential binding at particular sites (e.g. A:T). In addition to blockage by random adducts, there may be inhibition by photoproducts. As in Example 23, no attempt was made to separate the impact of photoproducts from that of covalent binding of photoreactive compound on the 71-mer.
# The two compounds, photobiotin and monoazide ethidium chloride, have different spectral characteristics. To activate these compounds, two different wavelength regions were selected using a single light source (General Electric Sunlamp, Model RSM, 275 watt). The light source was positioned 10 cm above uncapped Eppendorph tubes which contained samples to be irradiated. The samples were kept on ice during irradiation. A pyrex dish was placed between the lamp and the samples.
# For samples containing photobiotin, 2.5 cm of water was added to the pyrex dish to help remove some of the infrared radiation. The samples were irradiated for 15 minutes.
# For samples containing monoazide ethidium chloride, wavelengths less than 400 nm were filtered out by using 2.5 cm of an aqueous solution of 2.9 M NaNO2. Removal of short wavelengths (i.e. wavelengths shorter than 400 nm) is necessary for the use of monoazide ethidium chloride. Irradiation of this compound with shorter wavelengths results in conversion to non-active forms (data not shown). Wavelengths below 400 nm are therefore undesirable for use with this compound.
# In this experiment, the 71-mer template (2 x 10^-9 M) in 10 µl was mixed with either no photoreactive compound, photobiotin (6 x 10^-6 M), or monoazide ethidium (1.4 x 10^-3 M). Half of each of these samples were irradiated on ice for 15 minutes with wavelengths appropriate for each specific photoreactive compound. […]
# HIV 115-mer = test: PCR with pre-irradiated photobiotin or monoazide ethidium chloride; format: biochemical
# Experimental: In this experiment, photobiotin and monoazide ethidium chloride were tested as PCR sterilization reagents. The temporal steps were performed to examine photoproduct effects (if any). Solutions of photobiotin and monoazide ethidium chloride were made up in 1 x Taq buffer. Concentrations of photobiotin ranged form 7 x 10^-4 M to […]: concentrations of the monoazide ethidium chloride ranged from 3 x 10^-9 M to 3 x 10^-10M. […] Each compound solution was divided into two parts: One part was irradiated under a GE sunlamp through a pyrex filter (300nm cut-off); the other half was irradiated under a GE sunlamp through a 2.9 M NaNO2 liquid filter (400 nm cut-off). Irradiations were carried out on ice for 15 minutes. After irradiation, aliquots of each tube were carried over into tubes containing PCR reagents and target (HIV 115-mer); PCR was then carried out for 30 cycles in the presence of α-^32P-dCTP. After amplification aliquots were analyzed on 12% acrylamide/8M urea gels.
compound,measurement,setting,value
"Cc1oc2ccc3c(C)cc(=O)oc3c2c1CN(C)CCCCCCN(C)C(=O)CCCCCNC(=O)CCCC[C@@H]1SC[C@@H]2NC(=O)N[C@@H]21 [BIODMIP, 4'-N-[N,N'-dimethyl-N'-(6-{biotinamido} -hexanoate)-1,6-hexanediamine] -methyl-4,5'-dimethylisopsoralen]",ratio of 1 covalently bound BIODMIP per n base pairs,[1],20 base pairs
"COc1c2occc2cc2ccc(=O)oc12 [Compound 8-MOP, 8-methoxypsoralen]",template activity lost by modified DNA,[2],97%
"COc1cc(OC)c2ccc(=O)oc2c1 [DMC, 5,7-dimethoxycoumarin]",template activity lost by modified DNA,[2],50%
"Cc1cc2c(ccc3c(C)cc(=O)oc32)o1 [DMIP, 4,5'-Dimethylisopsoralen]",maximum aqueous solubility,[3],8 µg/mL
"C[S+](C)[O-] [DMSO, dimethyl sulfoxide]",CPM of product bands,human placental DNA; 1% DMSO,"137,000 CPM"
same,CPM of product bands,human placental DNA; 5% DMSO,"94,000 CPM"
same,CPM of product bands,human placental DNA; 10% DMSO,"76,000 CPM"
"Cc1oc2c(C)c3oc(=O)cc(C)c3cc2c1CO [HMT, 4'-hydroxymethyl-4,5',8-trimethylpsoralen]",Taq polymerase extension on 71-mer monoadduct template,Taq I DNA polymerase,stop Taq polymerase
same,inhibition of E. Coli polymerase I by covalently bound monoadducts,"[2]; Piette and Hearst 1983, nick-translating a double-stranded template",not inhibited
same,inhibition of E. Coli polymerase I by covalently bound monoadducts,"[2]; Piette and Hearst 1985, single-stranded template (bacteriophage DNA)",inhibited
"O=c1ccc2ccc3occc3c2o1 [IP, isopsoralen]",Solubility in 1 X TE,[4],2 µg/mL
"CN(CCCNC(=O)CCCC[C@@H]1SC[C@@H]2NC(=O)N[C@@H]21)CCCNc1ccc(N=[N+]=[N-])cc1[N+](=O)[O-] [photobiotin, reference compound]",extension after irradiation,"Taq polymerase; photobiotin (6 x 10^-6 M), irradiated on ice for 15 minutes, GE sunlamp",inhibition only after irradiation
same,concentration at which pre-irradiated compound shut down PCR,"HIV 115-mer; highest concentration used, 115-mer amplified at all lower concentrations",700 µM
monoazide ethidium chloride [reference compound],"extension, dark control","Taq polymerase; photobiotin (6 x 10^-6 M) or monoazide ethidium (1.4 x 10^-3 M), kept in the dark",inhibition of extension
same,inhibition of PCR by pre-irradiated compound,"HIV 115-mer; irradiated on ice 15 minutes under GE sunlamp before addition to PCR, 30 cycles",does not inhibit PCR
